In patent US20060289019A1, “Information method and system for generating data for optimizing a medical treatment, and equipment used in this system” (IPPM HOLDING SA, priority 2005, published 2006):

Key:
[1] = male, human, in vivo
Experimental: A patient suffering from schizo-affective disorder and from dual personality disorder reacts correctly to clozapine (clozaril, 600 mg/day, blood concentration: 502 ng/mL). They are also treated with lithium (eskalith, 900 mg/day). […] After 11 days the patient had to be admitted to the emergency department because they had too high a blood level of clozapine (2112 ng/mL).
Thus, the DEM will transfer the pharmacogenetic data from the DGSB. It will find, according to the pharmacokinetic data and studies on clozapine-fluvoxamine interaction, an appropriate function and the corresponding statistical values. […] The dosage of fluvoxamine is sought to be maintained constant. Still with reference to FIG. 3, the straight line which is of interest therefore, is that for which the blood level is 5 μM. […] The equation of this straight line (according to data taken from a publication) is y=3.7×/1.8 ? x=1.8y/3.7. Therefore if y=502 ng/mL then x=502*1.8/3.7=244 ng/mL. This means that the current dosage would need to be reduced by at least a half in order to avoid too great an interaction between the two products and especially to prevent a worrying blood level of clozapine in the blood. This optimization reasoning will be carried out by the OS as a function of the data which are sent to it by the DEM.

[2] = test system: clozapine N-demethylation; conditions: cited from earlier work

Row | clozapine blood level x calculated from straight line x=1.8y/3.7 for y=502 ng/mL [1] | Compound | clozapine N-demethylation inhibitor strength [2]
1 | 244 ng/mL | CN1CCN(C2=Nc3cc(Cl)ccc3Nc3ccccc32)CC1 [clozapine] | –
2 | – | COCCCC/C(=N\OCCN)c1ccc(C(F)(F)F)cc1 [fluvoxamine] | strong
